The values that follow are results of earlier work, collected in PMC2613028, “Discovery of a Non-Peptidic Inhibitor of West Nile Virus NS3 Protease by High-Throughput Docking” (PLoS Neglected Tropical Diseases, 2009).

Like-named read-outs stand apart in the source and are kept apart here.

The test system of the series is WNV protease. Further details: method as in PMID 17064076. To be noted: peptide aldehyde inhibitors.

In general, IC50 refers to the point on the concentration scale where inhibition reaches its midpoint. For “benzoyl-norleucine-lysine-arginine-arginine-aldehyde [Bz-Nle-Lys-Arg-Arg-H]”, the IC50 is 4.1 µM. Further, the IC50 (listed as Bz-nKRR-H) is 4 µM.
